In patent EP0414175A2, “Use of xanthine derivatives to reduce nephrotoxicity” (HOECHST AKTIENGESELLSCHAFT, priority 1989, dated 1991):

Experiments:
Mäuse = assay: Mortality of mice after repeated intravenous injections, 42-day observation; details: 30 daily i.v. injections, 5 consecutive days per block, 4 blocks, 2 treatment-free days between, Amphotericin B 4 mg/kg, xanthine derivatives 20 mg/kg each, dissolved in 5 % aqueous glucose solution
[1] = Pathophysiological serum findings (nephrotoxicity markers) in mice after repeated intravenous treatment; format: in vivo, Mäuse; details: serum of mice, treated 9 times intravenously within 11 days; pooled sera of 3 mice each; Pentoxifyllin 20 mg/kg, Amphotericin B 4 mg/kg
Procedure: Es wurden Mäuse im Verlauf von 11 Tagen 9 mal intravenös mit Pentoxifyllin (20 mg/kg), Amphotericin B (4 mg/kg) und Amphotericin B (4 mg/kg) in Kombination mit Pentoxifyllin (20 mg/kg) sowie mit einer Lösungsmittelkontrolle behandelt. Zur Beurteilung der Nephrotoxizität der jeweils verabreichten Substanzen wurden bei den Versuchstieren folgende Stoffe bestimmt: Creatinin: Eine gestörte Creatininclearance durch eine geschädigte Niere führt zu einem erhöhten Gehalt von Creatinin im Serum (Hypercreatininaemie) Harnstoff : Erhöhte Konzentrationen im Serum werden regelmäßig bei einer schweren Nierenfunktionsstörung beobachtet. Eine verminderte Harnstoffclearance führt zu einem erhöhten Gehalt im Serum Kalium: Da Kaliumionen bis zu 95 % durch die Nieren ausgeschieden werden, ist eine Hyperkaliaemie ein deutliches Zeichen für eine schwere Nierenfunktionsstörung. Tabelle 1

Nieren = assay: Histopathological examination of kidneys of intravenously treated mice (PAS staining); format: in vivo, Mäuse; details: mice treated i.v. over 11, 25, 39 or 53 days; Pentoxifyllin 20 mg/kg, Amphotericin B 4 mg/kg; 4 animals per time point; compared with glucose solvent control
Procedure: Weiterhin läßt sich die nephrotoxizitätssenkende Wirkung der Xanthinderivate durch histologische Untersuchung von Versuchstieren feststellen.
Dazu wurden […] Mäuse mit Glukose, Pentoxifyllin (20 mg/kg), Amphotericin B (4 mg/kg) oder der Kombination von Pentoxifyllin/Amphotericin B (20 mg/kg bzw. 4 mg/kg) über einen Zeitraum von 11, 25, 39 oder 53 Tagen intravenös behandelt.
Nach den angegebenen Versuchszeiten wurden je 4 Tiere getötet und Serum für serologische Untersuchungen entnommen. Die Nieren wurden in Bouin'schem Gemisch fixiert, nach üblicher histologischer Technik aufgearbeitet und PAS-gefärbt.

SMILES	Mortalitäten nach einer Beobachtungszeit von 42 Tagen (Mäuse)	Creatinin [1]	Harnstoff [1]	Kalium [1]	histopathologische Untersuchungen der Nieren (Nieren)
CC(=O)CCCCn1c(=O)c2c(ncn2C)n(C)c1=O [Pentoxifyllin, 3,7-Dimethyl-1-(5-oxohexyl)xanthin]	0 von 25 Mäusen gestorben	–	–	–	–
Cn1c(=O)n(CCCCC(C)(C)O)c(=O)c2[nH]cnc21 [1-(5-Hydroxy-5-methyl-hexyl)-3-methylxanthin]	0 von 25 Mäusen gestorben	–	–	–	–
CCOCn1cnc2c1c(=O)n(CCCCC(C)(C)O)c(=O)n2C [7-Ethoxymethyl-1-(5-hydroxy-5-methylhexyl)-3-methyl-xanthin]	0 von 25 Mäusen gestorben	–	–	–	–
C[C@@H]1[C@H](O)[C@@H](C)/C=C/C=C/C=C/C=C/C=C/C=C/C=C/[C@H](O[C@@H]2O[C@H](C)[C@@H](O)[C@H](N)[C@@H]2O)C[C@@H]2O[C@](O)(C[C@@H](O)C[C@@H](O)[C@H](O)CC[C@@H](O)C[C@@H](O)CC(=O)O[C@H]1C)C[C@H](O)[C@H]2C(=O)O [Amphotericin B]	73 von 92 Mäusen gestorben	55 µmol/L	10,5 mmol/l	10,1 mmol/l	erhebliche Schäden des tubulären Apparats
